Reference: patent publication US12336996B2, “Drug combination containing TLR7 agonist” (Chia Tai Tianqing Pharmaceutical Group Co., Ltd., priority 2019, dated 2025)

Experiments:
HBV [1] = test: AAV mice study: serum HBV DNA copy number by fluorescence quantitative PCR; assay type: in vivo, C57BL/6 mice; settings: for HBV DNA (result in words): over a 42-day treatment period, AAV mice; for HBV DNA replication level in mouse serum (treatment period): rAAV8-1.3HBV mice, i.g., ETV 0.0032 (1 W) & 0.001 (2-6 W) mg/kg qd, TLR7 agonist 20 mg/kg tiw
Method: Male C57BL/6 mice (Shanghai Slac Laboratory Animal Co., Ltd.) aged 6-8 weeks were taken, and rAAV8-1.3HBV virus (FivePlus Institute of Molecular Medicine, Beijing) was injected into the C57BL/6 mice via tail veins at a dose of 1×10^11 vg. Blood was collected from the orbit at week 2 and week 4 after the virus was injected. Serum was separated, and HBV DNA copy number in serum were measured to determine whether the model was successfully constructed or not. Mice were randomized according to the HBV DNA copy number into vehicle control group, TLR7 agonist group (20 mg/kg, tiw), entecavir (ETV) group (0.0032 (week 1, 1 W) & 0.001 (week 2-6, 2-6 W) mg/kg, qd), and TLR7 agonist and ETV combination group, each group containing 6 mice. The mice in each group were administered intragastrically for 6 weeks, and the administration was stopped for 3 week. Blood was collected from the orbit at weeks 1, 2, 3, 4, 5 and 6 during the administration period and weeks 1, 2 and 3 during the withdrawal period, and serum was separated. The HBV DNA copy number was determined by fluorescence quantitative PCR.
• i. Vehicle control group; • ii. Monotherapy group: entecavir; • iii. Monotherapy group: TLR7 agonist; • iv. Combination group (combo): TLR7 agonist and entecavir;
The test results were evaluated by Jin equation. The Jin equation is a modified method based on the Burgi method, and is also referred to the probability addition method:
The combination efficacy is calculated according to the following equation: q=EA+B/(EA+EB−EA×EB)
wherein EA denotes the efficacy of drug A monotherapy; EB denotes the efficacy of drug B monotherapy; EA+B denotes the efficacy of the combination of drugs A and B.
The significance of q: 0.85 to 1.15 indicates simple addition; 1.15 to 20 indicates enhancement; greater than 20 indicates significant enhancement; 0.85 to 0.55 indicates antagonism; less than 0.55 indicates significant antagonism. The q value takes the absolute value.

HBV [2] = test: Example 2: clinical study of TLR7 agonist combined with entecavir in chronic hepatitis B patients; assay type: in vivo, human; settings: TLR7 agonist 1.0-1.8 mg once weekly, entecavir 0.5 mg/day, 24 weeks
Method: [drawing 54] (2-butoxy-7-(4-(pyrrolidin-1-ylmethyl) benzyl)-5H-pyrrolo[3,2-d]pyrimidin-4-amine); see WO2016023511 for the preparation method. The compound was prepared into tablets with strength of 0.2 mg or 0.5 mg. • Entecavir: commercially available entecavir tablets with strength of 0.5 mg. Commercially available entecavir tablets include, but are not limited to, entecavir dispersible tablets (Runzhong). • Placebo: a placebo for TLR7 agonist. 2. Enrolled Subjects
The subject should meet all of the following criteria: • 1) Male patients or non-pregnant, non-lactating female patients aged 18-65 years (inclusive); • 2) Serum virology: persistent positive serum HBsAg for 6 months or more, or with evidence of chronic hepatitis B for 6 months; • 3) Previously treated patients: historical HBV DNA inhibition less than the lower limit of normal 24 weeks before enrollment, and HBV DNA inhibition defined as <69 IU/mL determined by a Roche reagent during screening; Fibroscan ≤9.0 Kpa (fasting), and ALT≤5×ULN; • 4) Previously untreated patients: HBV DNA >10^5 copies/mL (or >20000 IU/mL) for HBeAg-positive chronic hepatitis B patients or HBV DNA >10^4 copies/mL (or >2000 IU/mL) for HBeAg-negative patients as determined by Roche's Cobas Taqman real-time quantitative PCR test v2.0, with the lower limit of detection being 20 IU/mL; Fibroscan ≤12.4 Kpa (fasting), and 1×ULN≤ALT≤5×ULN. […] 3. […]

[3] = withdrawal period day 49, after 6 weeks of i.g. administration
[4] = withdrawal period day 56, after 6 weeks of i.g. administration
[5] = withdrawal period day 63, after 6 weeks of i.g. administration

Compound	HBV DNA (result in words) (HBV [1])	HBV DNA replication level in mouse serum (treatment period) (HBV [1]; treatment period day 0)	HBV DNA replication level in mouse serum (treatment period) (HBV [1]; treatment period day 7)	HBV DNA replication level in mouse serum (treatment period) (HBV [1]; treatment period day 14)	HBV DNA replication level in mouse serum (treatment period) (HBV [1]; treatment period day 21)	HBV DNA replication level in mouse serum (treatment period) (HBV [1]; treatment period day 28)	HBV DNA replication level in mouse serum (treatment period) (HBV [1]; treatment period day 35)	HBV DNA replication level in mouse serum (treatment period) (HBV [1]; treatment period day 42)	HBV DNA replication level in mouse serum (withdrawal period) (HBV [1]; [3])	HBV DNA replication level in mouse serum (withdrawal period) (HBV [1]; [4])	HBV DNA replication level in mouse serum (withdrawal period) (HBV [1]; [5])	HBV DNA replication (result in words) (HBV [2])
CCCCOc1nc(N)c2[nH]cc(Cc3ccc(CN4CCCC4)cc3)c2n1 [TLR7 agonist, 2-butoxy-7-(4-(pyrrolidin-1-ylmethyl)benzyl)-5H-pyrrolo[3,2-d]pyrimidin-4-amine]	significantly reduced	7.53 ± 0.15 logic lU/mL	6.64 ± 1.33 logic lU/mL	4.55 ± 1.41 logic lU/mL	4.13 ± 0.67 logic lU/mL	3.64 ± 0.21 logic lU/mL	3.61 ± 0.24 logic lU/mL	3.41 ± 0.33 logic lU/mL	4.37 ± 0.48 log10 IU/mL	4.86 ± 0.41 log10 IU/mL	5.26 ± 0.39 log10 IU/mL	achieved inhibition
C=C1[C@H](CO)[C@@H](O)C[C@@H]1n1cnc2c(=O)[nH]c(N)nc21 [entecavir, 2-amino-9-[(1S,3R,4S)-4-hydroxy-3-hydroxymethyl-2-methylenecyclopentyl]-1,9-dihydro-6H-purin-6-one]	significantly reduced	7.53 ± 0.15 logic lU/mL	5.27 ± 0.18 logic lU/mL	5.66 ± 0.14 logic lU/mL	5.96 ± 0.28 logic lU/mL	5.34 ± 0.43 logic lU/mL	5.62 ± 0.36 logic lU/mL	6.44 ± 0.46 logic lU/mL	6.97 ± 0.72 log10 IU/mL	7.32 ± 0.73 log10 IU/mL	7.33 ± 0.80 log10 IU/mL	inhibitory effects
